What all share (assay type): cell-based, human
Data set [1] relates to FoxM1. Kind of data set: MELK abundance after FoxM1 inhibition (immunoblotting). Here is the method: Cells were lysed with RIPA buffer (25 mM Tris, pH 7.4, 150 mM NaCl, 1% Nonidet P-40, 0.5% sodium deoxycholate, and 0.1% sodium dodecyl sulfate) supplemented with protease inhibitors cocktail (Roche) and phosphatase inhibitors cocktail (Thermo Scientific). Cleared lysates were analyzed for protein concentration using BCA kit (Thermo Scientific). Equal amount of protein (10-20 μg) was resolved on 8% or 10% SDS-PAGE, and was subsequently transferred onto a nitrocellulose or polyvinylidene difluoride membrane (Amersham). The membrane was blocked with 5% non-fat milk and was then incubated with primary antibodies overnight at 4° C. After washing, the membrane was incubated with fluorophore-conjugated secondary antibodies for 1 h at room temperature. The membrane was then washed and scanned with an Odyssey Infrared scanner (Li-Cor Biosciences). Primary antibodies used in this study include anti MELK (Epitomics, #2916), anti-α-tubulin (Abcam), anti-cyclin B1 (Millipore), anti-Vinculin (Sigma), anti-FoxM1 (Santa Cruz), anti-β-tubulin, anti-phopho-Akt (S473), anti-phospho Akt (T308), anti-total Akt, anti-Flag, anti-cleaved PARP (Asp214), anti-cleaved Caspase 3, anti-AURKA, anti-AURKB, anti-p27 (all from Cell Signaling Technology). Secondary antibodies used were IRDye700-conjugated anti-rabbit IgG and IRDye800-conjugated anti-mouse IgG (Rockland).
For orientation: In western blotting, separated proteins are transferred to a membrane and probed.

Data set [2] has as its system FoxM1. Kind of data set: MELK transcription after FoxM1 inhibition (qRT-PCR). The following applies: cells treated for 16 h; quantitative PCR. Here is the method: Total RNA was extracted from cultured cells with RNeasy Mini kit (Qiagen), with the use of QIAshredder spin column for homogenization and an on-column DNase digestion. Two micrograms of the total RNA was reversely transcribed using a High Capacity RNA to-cDNA Kit (Applied Biosystems). cDNAs were analyzed quantitatively using Power SYBR Green PCR Master Mix (Applied Biosystems) on an ABI7300 Real-time PCR system. Cycling conditions were 95° C. for 15 min, 40 cycles of 15 s at 94° C., 30 s at 55° C. and 30 s at 72° C. Ct values were generated using the default analysis settings. ΔCT was defined as Ctgene of interest-Ctβactin. ΔΔCT was defined as ΔCttreated sample-Ctcontrol sample. Relative quantification (RQ) was calculated as 2^−ΔΔCT. Statistical analysis was performed by Student's test.

A further data set concerns caspases. The data set is described as follows: MELK knockdown-induced cell death with pan-caspase inhibitor. The following applies: MDA-MB-468 cells with shMELK, doxycycline 4 days, last two days with 40 μM zVad-fmk.
Data set [3] deals with BBC cells including BT549, MDA-MB-468, MDA-MB-231, and MDA-MB-436. The data set is described as follows: Cell proliferation assay (crystal violet) upon doxycycline-induced shRNA. The following applies: knockdown induced with doxycycline 100 ng/ml; crystal violet staining six days after initial treatment. On the procedure: (§1) Typically, breast cancer cells were seeded in 12-well plates (1-2×10^4) in 1 ml medium. On the next day, wells were added with 110 μl medium without or with 1 μg/ml doxycycline (to reach a final concentration of 100 ng/ml), which was repeated every two days. Six days after the initial treatment, cells were fixed with formaldehyde, and stained with crystal violet (0.05%, weight/volume), a chromatin-binding cytochemical stain. The plates were washed extensively, and imaged with a flatbed scanner. For quantification of the staining, 1 ml 10% acetic acid was added to each well to extract the dye. The absorbance was measured at 590 nm with 750 nm as a reference.

In data set [4] the test system is luminal cell lines, MCF7 and T47D. The description is as above. The following applies: knockdown induced with doxycycline 100 ng/ml. Here is the method: as §1

Entries after “also recorded” stand apart in the source; their conditions may differ. Where a SMILES comes first, the peptide text is derived from it. The star is where a group is joined. Cbz = O=C(OCc1ccccc1)*; CH2F = FC*

As to `C=C(NC(=O)C(=C)NC(=O)c1csc(C2=N[C@@H]3c4csc(n4)[C@H]4NC(=O)c5csc(n5)[C@H]([C@](C)(O)[C@@H](C)O)NC(=O)[C@H]5CSC(=N5)/C(=C/C)NC(=O)[C@H]([C@@H](C)O)NC(=O)c5csc(n5)[C@]3(CC2)NC(=O)[C@H](C)NC(=O)C(=C)NC(=O)[C@H](C)NC(=O)[C@H]([C@@H](C)CC)N[C@@H]2C=Cc3c([C@H](C)O)cc(nc3[C@H]2O)C(=O)O[C@@H]4C)n1)C(N)=O` [thiostrepton], in the data set with FoxM1 [1] (MDA-MB-231 cells, 10 μM thiostrepton vs vehicle (0.1% DMSO)), the “abundance/expression of MELK protein” value is on record as “reduced the abundance of MELK; also recorded: downregulates the expression of MELK”. Further, in the data set on FoxM1 [2], the “transcription of MELK” value is given as “decreases the transcription of MELK”. With `COC(=O)C[C@H](NC(=O)[C@H](C)NC(=O)[C@@H](NC(=O)OCc1ccccc1)C(C)C)C(=O)CF` [zVad, zVad-fmk] (Cbz-Val-Ala-Asp(OMe)-CH2F), the “MELK knockdown-induced cell death” value in the data set with caspases is on record as “significantly reduced MELK knockdown-induced cell death”.

Turning to “GACTAAAGCTTCACTATAATG (expressed or natural sequence) [MELK sh-1805, ID; NO: 2]”, the “growth of BBC cells upon induction of the shRNA” value in data set [3] is “strongly impaired the growth”. Also, in data set [4], the “growth of luminal cell lines upon induction of the shRNA” value is “protected from the induction of MELK silencing”. For “GAGAGCTGTTTGACTATATAA (expressed or natural sequence) [MELK sh-413, ID; NO: 1]”, the “growth of BBC cells upon induction of the shRNA” value in data set [3] is recorded as “strongly impaired the growth”. In data set [4], the “growth of luminal cell lines upon induction of the shRNA” value is reported as “protected from the induction of MELK silencing”. The corresponding values for “GCCTGAAAGAAACTCCAATTA (expressed or natural sequence; the letters are possibly those of the target site) [shMELK2, ID; NO: 4]” are “strongly impaired the growth” and “protected from the induction of MELK silencing”. Turning to “GGTGTGATACAGCCTACATAA (expressed or natural sequence; the letters are possibly those of the target site) [shMELK1, ID; NO: 3]”, the “growth of BBC cells upon induction of the shRNA” value in data set [3] was “strongly impaired the growth”. Moreover, in data set [4], the “growth of luminal cell lines upon induction of the shRNA” value is recorded as “protected from the induction of MELK silencing”. Consider “ggaccacuuucccuacuuu [siRNA (SEQ ID NO: 31)]”, for which the “abundance/expression of MELK protein” value in the data set with FoxM1 [1] (siRNA transfection, lysates three days after transfection) is reported as “reduced the abundance of MELK”; in the data set on FoxM1 [1] (siRNA transfection, lysates three days after transfection, listed as siRNA targeting FoxM1), “suppresses MELK expression”.
